From ChEMBL document CHEMBL1201862, “PubChem BioAssay data set” (2004)
Active and inactive are the calls of the source.

How the values were obtained:
[1] = tested on: INS1; experiment: protection from cytokine-induced mitochondrial depolarization, dose response, cell-based, INS-1E, JC-1 fluorescence ratio, dry powder (AID 488931); format: functional; settings: Rattus norvegicus
[2] = tested on: HEK293; experiment: cells; format: functional, cell-based; settings: Homo sapiens
[3] = biological target: Nuclear receptor subfamily 0 group B member 1 (Homo sapiens, UniProt P51843); experiment: Luminescence-based cell-based high throughput dose response assay for inhibitors of the orphan nuclear receptor subfamily 0, group B, member 1 (DAX1; NR0B1). [Related pubchem assays (depositor defined):AID504766, AID504790]; format: functional
Nuclear receptor subfamily 0 group B member 1, sequence (P51843 whole entry): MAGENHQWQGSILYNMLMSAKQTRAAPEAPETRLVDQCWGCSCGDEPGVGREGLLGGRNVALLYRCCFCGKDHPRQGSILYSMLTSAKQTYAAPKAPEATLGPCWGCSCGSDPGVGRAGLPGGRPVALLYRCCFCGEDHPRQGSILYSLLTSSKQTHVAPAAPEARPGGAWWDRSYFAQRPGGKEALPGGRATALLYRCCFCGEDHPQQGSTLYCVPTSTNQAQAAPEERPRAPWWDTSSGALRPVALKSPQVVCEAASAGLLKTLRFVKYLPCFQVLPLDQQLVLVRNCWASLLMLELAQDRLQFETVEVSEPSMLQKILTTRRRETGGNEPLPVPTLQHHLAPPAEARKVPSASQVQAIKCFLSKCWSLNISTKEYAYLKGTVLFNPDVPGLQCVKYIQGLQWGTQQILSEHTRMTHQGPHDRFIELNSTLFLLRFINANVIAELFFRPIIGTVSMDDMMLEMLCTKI

[4] = NIH-3T3 fibroblast cytotoxicity, dose response, cytotoxicity control, cell-based, fluorescence, Alamar Blue, secondary assay (AID 2327); format: functional;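 note: NIH-3T3 mouse fibroblasts cultured with fluconazole at 8 µg/mL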
[5] = inhibitors of firefly luciferase expression or activity, dose response, H4 neuroglioma cells, luminescence (AID 1990); format: functional, cell-based
[6] = tested on: Streptococcus sp. 'group A'; experiment: growth inhibition of control SK(-) GAS strain, dose response, counter-screen for streptokinase expression inhibitor project, luminescence, kanamycin, BacTiterGlo, confirmation (AID 1900); format: functional, organism-based
[7] = cells; format: functional, cell-based
[8] = Luminescence Cell-Based Dose Response HTS to Identify Inhibitors of 5'UTR Stem-Loop Driven Prion Protein mRNA Translation in H4 Neuroglioblastoma Cells. [Related pubchem assays: 1827 (Project Summary), 1813 (Primary HTS)]; format: functional
[9] = inhibitors of SNCA 5'UTR-driven reporter translation, confirmation, H4 neuroglioma cells, luminescence (AID 1988); format: functional, cell-based
[10] = biological target: T1, Streptokinase A (Streptococcus pyogenes serotype M1, UniProt P10520); experiment: S. pyogenes streptokinase expression inhibitors, potency, dose response, plasminogen activation absorbance, OD405 (AID 1914); format: functional, Streptococcus pyogenes M1 GAS;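 note: secreted streptokinase activity via plasminogen activation per viability signal from cell pellet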
T1 sequence (P10520 whole entry): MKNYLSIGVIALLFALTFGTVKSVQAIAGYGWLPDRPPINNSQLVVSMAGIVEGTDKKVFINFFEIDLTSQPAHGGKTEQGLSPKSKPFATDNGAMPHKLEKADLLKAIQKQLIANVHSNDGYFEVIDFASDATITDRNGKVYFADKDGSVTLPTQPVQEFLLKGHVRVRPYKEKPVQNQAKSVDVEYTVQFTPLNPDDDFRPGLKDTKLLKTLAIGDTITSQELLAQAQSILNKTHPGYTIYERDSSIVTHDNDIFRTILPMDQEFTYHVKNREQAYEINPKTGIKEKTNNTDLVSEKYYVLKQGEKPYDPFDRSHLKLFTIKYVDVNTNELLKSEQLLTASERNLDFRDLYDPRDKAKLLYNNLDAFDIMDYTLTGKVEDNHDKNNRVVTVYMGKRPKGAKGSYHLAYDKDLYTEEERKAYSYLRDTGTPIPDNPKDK

[11] = C. albicans growth with fluconazole, confirmation, fluorescence, retest (AID 2467); format: functional, cell-based
[12] = cells; format: functional, cell-based; remark: listed apart in the source
[13] = biological target: Serine/threonine-protein phosphatase (Candida dubliniensis (strain CD36 / CBS 7987 / NCPF 3949 / NRRLY-17841) (Yeast), UniProt B9W6M3); experiment: calcineurin pathway inhibitors in yeast reporter, dose response, S. cerevisiae, CDRE-lacZ, luminescence, secondary (AID 2388); format: functional, cell-based;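 note: yeast reporter cells carrying a calcineurin-responsive lacZ construct stimulated with calcium chloride; luminescent beta-galactosidase reporter signal in whole cells rather than isolated phosphatase activity; potency for inhibition where a drop in reporter signal means calcineurin blockade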
Serine/threonine-protein phosphatase, sequence (B9W6M3 whole entry): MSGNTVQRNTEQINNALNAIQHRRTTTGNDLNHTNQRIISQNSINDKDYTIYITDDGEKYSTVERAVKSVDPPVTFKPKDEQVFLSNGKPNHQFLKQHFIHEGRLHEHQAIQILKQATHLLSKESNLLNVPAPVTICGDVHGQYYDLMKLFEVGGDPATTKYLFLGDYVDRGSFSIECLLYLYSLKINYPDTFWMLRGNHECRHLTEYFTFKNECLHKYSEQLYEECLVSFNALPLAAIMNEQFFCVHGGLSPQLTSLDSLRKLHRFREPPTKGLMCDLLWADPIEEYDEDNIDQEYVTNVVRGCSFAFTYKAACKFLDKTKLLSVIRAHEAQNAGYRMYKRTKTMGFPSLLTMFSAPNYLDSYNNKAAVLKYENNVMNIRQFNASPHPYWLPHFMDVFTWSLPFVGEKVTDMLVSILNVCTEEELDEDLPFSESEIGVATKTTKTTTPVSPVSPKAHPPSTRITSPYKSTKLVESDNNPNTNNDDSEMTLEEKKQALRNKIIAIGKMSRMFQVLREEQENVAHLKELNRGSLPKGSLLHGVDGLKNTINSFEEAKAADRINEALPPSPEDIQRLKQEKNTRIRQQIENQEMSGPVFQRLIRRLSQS

[14] = tested on: Streptococcus; experiment: Group A Streptococcus viability loss, dose response, counter-screen for streptokinase expression inhibitor project, luminescence, BacTiterGlo (AID 1915); format: functional, organism-based;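 note: potency for reduction of bacterial viability or growth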
[15] = tested on: HEK293; experiment: inhibitors of LMP1-driven NF-kB reporter, dose response, cell-based, HEK293, luciferase, cherry-pick (AID 588343); format: functional; settings: Homo sapiens
[16] = biological target: Heat shock protein HSP 90-alpha (Homo sapiens, UniProt P07900); format: functional, organism-based
[17] = tested on: INS1; experiment: beta cell apoptosis inhibitors, cytokine rescue, dose response, luminescence, retest (AID 449756); format: functional, cell-based; settings: Rattus norvegicus;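 note: cell death triggered by IL-1 beta plus TNF-alpha plus IFN-gamma mixture; protective hits raise ATP signal compared with cytokine alone wells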
[18] = biological target: ATP-dependent molecular chaperone HSP82 (Candida albicans (strain WO-1) (Yeast), UniProt C4YTQ8); experiment: loss of DOC-induced GRE-beta-galactosidase reporter signal, dose response, Hsp90 inhibitor project, S. cerevisiae, luminescence (AID 2400); format: functional, cell-based;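 note: beta-galactosidase luminescence from glucocorticoid response element reporter as proxy for Hsp90 function; inhibitor potency where signal loss means Hsp90 inhibition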
ATP-dependent molecular chaperone HSP82, sequence (C4YTQ8 whole entry): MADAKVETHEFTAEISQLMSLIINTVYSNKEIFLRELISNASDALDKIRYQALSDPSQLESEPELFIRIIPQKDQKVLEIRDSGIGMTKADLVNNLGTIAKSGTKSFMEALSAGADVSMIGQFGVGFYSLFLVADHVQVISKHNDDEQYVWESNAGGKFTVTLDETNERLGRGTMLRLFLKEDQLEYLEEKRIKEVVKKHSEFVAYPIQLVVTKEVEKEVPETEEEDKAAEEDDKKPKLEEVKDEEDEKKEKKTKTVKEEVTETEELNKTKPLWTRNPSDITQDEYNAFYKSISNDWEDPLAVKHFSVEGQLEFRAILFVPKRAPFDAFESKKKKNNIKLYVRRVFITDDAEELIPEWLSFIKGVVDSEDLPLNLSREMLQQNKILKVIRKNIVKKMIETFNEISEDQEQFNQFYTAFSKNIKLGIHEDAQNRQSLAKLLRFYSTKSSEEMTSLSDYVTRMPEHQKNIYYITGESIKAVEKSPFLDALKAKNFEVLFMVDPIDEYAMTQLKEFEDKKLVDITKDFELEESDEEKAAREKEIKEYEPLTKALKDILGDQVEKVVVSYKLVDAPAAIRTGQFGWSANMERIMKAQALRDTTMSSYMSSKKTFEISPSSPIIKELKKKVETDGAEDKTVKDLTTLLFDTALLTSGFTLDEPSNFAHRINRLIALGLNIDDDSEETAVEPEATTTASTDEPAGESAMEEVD

[19] = biological target: T2, Rac GTPase-activating protein 1 (Homo sapiens, UniProt Q9H0H5); experiment: MgcRacGAP GTPase-activating activity inhibitors, confirmation, biochemical, ADP Hunter fluorescence, primary and confirmatory (AID 624330); format: functional
T2 sequence (Q9H0H5 whole entry): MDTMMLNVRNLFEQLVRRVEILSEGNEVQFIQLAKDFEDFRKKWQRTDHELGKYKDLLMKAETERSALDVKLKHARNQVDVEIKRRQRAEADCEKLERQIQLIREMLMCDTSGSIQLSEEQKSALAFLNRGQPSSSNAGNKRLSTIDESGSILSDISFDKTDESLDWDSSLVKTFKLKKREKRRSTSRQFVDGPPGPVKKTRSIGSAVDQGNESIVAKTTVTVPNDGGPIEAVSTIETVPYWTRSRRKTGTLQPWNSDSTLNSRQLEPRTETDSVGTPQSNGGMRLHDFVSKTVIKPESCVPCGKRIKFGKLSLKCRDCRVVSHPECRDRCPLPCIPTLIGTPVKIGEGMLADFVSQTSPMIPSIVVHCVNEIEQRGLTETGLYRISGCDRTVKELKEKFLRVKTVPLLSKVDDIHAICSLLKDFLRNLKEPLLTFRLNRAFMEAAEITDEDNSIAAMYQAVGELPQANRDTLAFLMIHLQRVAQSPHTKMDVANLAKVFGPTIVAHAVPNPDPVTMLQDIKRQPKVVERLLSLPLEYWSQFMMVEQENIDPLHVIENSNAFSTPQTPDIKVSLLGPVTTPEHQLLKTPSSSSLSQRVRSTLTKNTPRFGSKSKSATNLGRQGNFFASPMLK

[20] = THP-1 cell cytotoxicity, dose response, cytotoxicity control for non-replicating M. tuberculosis project (AID 489025); format: functional
[21] = biological target: T3, Heat shock factor protein 1 (Mus musculus, UniProt P38532); experiment: HSF1 potentiators in luciferase reporter cells, confirmation, cell-based, NIH3T3, luminescence, dose retest (AID 435004); format: functional;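 note: stress induced by proteasome inhibitor MG132 added 30 min after compound; luciferase reporter driven by HSF1 response element in NIH3T3 cells; actives raise luminescence as potentiators of the MG132 stress response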
T3 sequence (P38532 whole entry): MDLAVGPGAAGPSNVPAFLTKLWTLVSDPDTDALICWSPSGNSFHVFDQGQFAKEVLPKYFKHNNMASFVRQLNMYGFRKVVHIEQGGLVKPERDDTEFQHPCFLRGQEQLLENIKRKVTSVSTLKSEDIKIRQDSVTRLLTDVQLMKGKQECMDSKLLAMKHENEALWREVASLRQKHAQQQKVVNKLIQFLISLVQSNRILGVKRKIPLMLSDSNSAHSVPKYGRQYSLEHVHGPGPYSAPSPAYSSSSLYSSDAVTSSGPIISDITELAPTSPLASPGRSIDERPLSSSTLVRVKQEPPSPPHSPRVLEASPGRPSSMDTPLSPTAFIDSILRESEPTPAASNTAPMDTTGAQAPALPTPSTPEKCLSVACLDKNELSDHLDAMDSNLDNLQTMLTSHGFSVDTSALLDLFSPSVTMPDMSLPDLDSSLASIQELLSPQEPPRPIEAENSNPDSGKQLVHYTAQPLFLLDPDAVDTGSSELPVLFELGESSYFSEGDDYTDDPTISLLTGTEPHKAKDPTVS

[22] = biological target: T4, Microphthalmia-associated transcription factor (Homo sapiens, UniProt O75030); experiment: TRPM1 promoter luciferase signal decrease, dose response, MITF inhibitor project, cell-based, SK-MEL-5, cherry-picked, set 3 (AID 493073); format: functional
T4 sequence (O75030 whole entry): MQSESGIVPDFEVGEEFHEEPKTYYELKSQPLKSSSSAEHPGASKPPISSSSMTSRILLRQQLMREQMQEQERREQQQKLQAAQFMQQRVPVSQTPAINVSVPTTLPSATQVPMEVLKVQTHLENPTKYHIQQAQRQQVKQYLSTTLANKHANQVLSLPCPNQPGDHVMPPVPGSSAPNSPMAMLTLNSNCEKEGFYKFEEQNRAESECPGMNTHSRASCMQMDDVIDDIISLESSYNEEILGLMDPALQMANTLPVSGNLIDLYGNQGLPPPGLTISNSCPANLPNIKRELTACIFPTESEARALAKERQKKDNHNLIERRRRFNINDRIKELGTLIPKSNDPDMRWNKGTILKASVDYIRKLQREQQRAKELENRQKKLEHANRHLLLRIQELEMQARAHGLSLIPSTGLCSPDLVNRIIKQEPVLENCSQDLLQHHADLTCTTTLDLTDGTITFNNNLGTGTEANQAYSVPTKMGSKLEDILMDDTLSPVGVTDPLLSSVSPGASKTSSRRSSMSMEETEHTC

[23] = cells; format: functional
[24] = tested on: CHO; experiment: cytotoxicity in TLR9-MyD88 CHO cells, dose response, cytotoxicity control for TLR9-MyD88 binding inhibitor project, cell-based, luminescence (AID 588339); format: functional, hamster; settings: Cricetulus griseus;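 note: CHO cells stably coexpressing TLR9 and MyD88 fusions from primary screen; compound exposure lasted 48 hours before viability readout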
[25] = biological target: Beta Lactamase (Pseudomonas aeruginosa, UniProt Q932Y6); experiment: beta-lactamase reporter inhibitor potency, dose response, artefact control for TLR9-MyD88 binding inhibitor project, BLA reporter cells, FRET fluorescence (AID 588341); format: cell-based;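 note: cell based assay in CHO-K1 cells stably expressing beta-lactamase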
Beta Lactamase, sequence (Q932Y6 whole entry): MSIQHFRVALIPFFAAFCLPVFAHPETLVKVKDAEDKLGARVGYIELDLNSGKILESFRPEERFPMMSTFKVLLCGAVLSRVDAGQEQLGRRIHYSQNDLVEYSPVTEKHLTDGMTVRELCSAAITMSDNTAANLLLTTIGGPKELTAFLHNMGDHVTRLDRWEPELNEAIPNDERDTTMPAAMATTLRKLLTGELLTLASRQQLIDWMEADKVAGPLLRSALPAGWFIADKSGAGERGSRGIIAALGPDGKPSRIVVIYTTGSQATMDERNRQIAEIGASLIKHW

[26] = tested on: A-375; experiment: MITF: Counter assay: A375 proliferation Measured in Cell-Based System Using Plate Reader - 2084-03_Inhibitor_Dose_DryPowder_Activity. [Related pubchem assays (depositor defined):AID488944]; format: functional; settings: Homo sapiens
[27] = tested on: A-375; experiment: A375 melanoma cell viability reduction, dose response, counter-screen for MITF modulator project, cherry-pick samples, set 2 (AID 540335); format: functional, cell-based; settings: Homo sapiens
[28] = Shn3 3'UTR reporter inhibitors, dose response, cell-based, Clone20 osteoblasts, firefly luciferase, cherry-picked (AID 624132); format: functional;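 note: firefly luciferase luminescence from reporter carrying the Shn3 3'UTR in osteoblasts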
[29] = HepG2 cell cytotoxicity, dose response, cytotoxicity control for Shn3 inhibitor project, CellTiter-Glo, cherry-picked (AID 624134); format: functional, cell-based
[30] = control 3'UTR Renilla luciferase suppression, dose response, counter-screen for Shn3 inhibitor project, cell-based, Clone20-Shn3RL, cherry-picked (AID 624133); format: functional
[31] = Fluorescence polarization-based biochemical high throughput dose response assay for activators of the Protein Kinase A-R1A (PKA-R1A) complex. [Related pubchem assays (depositor defined):AID504704, AID504707, AID504799, AID504800]
[32] = Fluorescence polarization-based biochemical high throughput dose response assay for activators of the Protein Kinase A-R2B (PKA-R2B) complex. [Related pubchem assays (depositor defined):AID504700, AID504704, AID504796, AID504797]

Compound: C[C@@H]1CN([C@@H](C)CO)C(=O)c2cccc(NC(=O)Nc3cccc4ccccc34)c2O[C@H]1CN(C)S(C)(=O)=O
- AC50 [1]: > 195 µM (inactive)

Compound: Cc1cnc(C(=O)OCC(=O)NCCCc2ccccc2)cn1
- IC50 [2]: > 67.5 µM (inactive)
- IC50 [3]: > 67.5 µM (inactive)

Compound: O=C(N/N=C/c1sc2ccccc2c1O)c1cccc2ccccc12
- EC50 [4]: > 160 µM (inactive)
- EC50 [5]: 10.6 µM (active)
- EC50 [6]: 3.44 µM (active)
- EC50 [7]: 12.5 µM (active)
- EC50 [8]: 10.4 µM (active)
- EC50 [9]: 9 µM (active)
- EC50 [10]: > 150 µM (not active)
- EC50 [11]: 0.738 µM (active)
- EC50 [12]: > 350 µM (not active)
- EC50 [13]: > 180 µM (inactive)
- EC50 [14]: 12.4 µM (active)
- AC50 [15]: 5.14 µM (active)
- AC50 [16]: 14 µM (active)
- AC50 [17]: 1.1 µM (active)
- EC50 [18]: 9.14 µM (active)
- IC50 [19]: 52.9 µM (active)

Compound: CCOC(=O)COc1ccc2ccccc2c1/C=C/[N+](=O)[O-]
- CC50 [20]: 19.1 µM (active)
- EC50 [21]: 3.33 µM (inconclusive)
- AC50 [22]: 8.17 µM (active)
- IC50 [23]: 2.81 µM (active)
- IC50 [24]: 2.72 µM (active)
- AC50 [16]: 4.28 µM (active)
- IC50 [25]: 30.5 µM (inactive)
- AC50 [26]: > 35 µM (active)
- AC50 [17]: > 60 µM (inactive)
- AC50 [27]: > 35 µM (active)
- AC50 [28]: 5.2 µM (active)
- AC50 [29]: 20.9 µM (active)
- AC50 [30]: 12.9 µM (active)

Compound: CCCC(=O)Nc1ncnc2c1ncn2[C@@H]1O[C@@H]2COP(=O)(O)O[C@H]2[C@H]1OC(=O)CCC
- EC50 [31]: 4.48 µM (active)
- EC50 [32]: 5.38 µM (active)
